Measurements from patent US20070082945A1, “Discodermolide compositions” (priority 2003, published 2007).

What was measured:
[1] = Stability of propylene glycol infusion concentrates (HPLC, UV detector), Example 12; type: physicochemical
Protocol: The stability of propylene glycol infusion concentrates comprising discodermolide at different concentrations and various temperatures is determined. The stability is analyzed by determining formation of degradation products in each of the infusion concentrates as a function of time and temperature. Each sample is analyzed by HPLC with a UV detector. […] Under accelerated conditions, the levels of impurities increased at both 25° C./60% relative humidity (RH) and 45° C./60% RH.

[2] = Stability of solution diluted 1:1.6 with 16.3% w/v ethanol in 0.9% sodium chloride, ambient conditions; type: physicochemical; details: 0.77 mg/mL solution for infusion
Protocol: In this example, stability of discodermolide in solution diluted 1:1.6 with 16.3% w/v, ethanol in 0.9% sodium chloride solution (0.77 mg/mL) under ambient conditions is measured. Table 5 describes the amount of degradation product formed over a period of up to 24 hours. The stability is analyzed by determining formation of degradation products in each of the infusion solution as a function of time and temperature. Each sample is analyzed y HPLC with a UV detector. The solution for infusion was prepared by diluting a 2.0 mg/ml discodermolide concentrate with 16.3% ethanol in 0.9% sodium chloride solution in a 1:1.6 ration.

[3] = Effect of organic solvent ratio variation on solubility; type: physicochemical; details: propylene glycol/ethanol/normal saline mixture, aqueous with cosolvent or surfactant or cyclodextrin
[4] = Stability of infusion concentrates diluted 1:5 with 20/80 propylene glycol/0.9% sodium chloride, ambient conditions; type: physicochemical
Protocol: In this example, stability of discodermolide infusion concentrates diluted 1:5 with 20/80 propylene glycol/0.9% sodium chloride solution under ambient conditions is measured. Table 4 describes the amount of degradation product formed over a period of up to 24 hours. The stability is analyzed by determining formation of degradation products in each of the infusion solutions as a function of time and temperature. Each sample is analyzed by HPLC with a UV detector. The solution for infusion was prepared by diluting discodermolide concentrates, 0.6 mg/mL, 2.0 mg/mL and 3.0 mg/mL, with 20/80 propylene glycol/0.9% sodium chloride solution in a 1:5 ratio. The discodermolide concentrate solutions of 0.6 mg/mL, 2.0 mg/mL and 3.0 mg/mL yielded discodermolide solutions for infusions 0.12 mg/mL, 0.4 mg/mL and 0.6 mg/mL, respectively.

tubulin = details: competition with paclitaxel; cited from earlier work
[5] = 0.6 mg/mL infusion concentrate in PG, 0-time
[6] = 0.6 mg/mL infusion concentrate in PG, 5° C., 0.5 month
[7] = 0.6 mg/mL infusion concentrate in PG, 5° C., 1 month
[8] = 0.6 mg/mL infusion concentrate in PG, 5° C., 2 months
[9] = 0.6 mg/mL infusion concentrate in PG, 5° C., 3 months
[10] = 0.6 mg/mL infusion concentrate in PG, 25° C./60% RH, 0.5 month
[11] = 0.6 mg/mL infusion concentrate in PG, 25° C./60% RH, 1 month
[12] = 0.6 mg/mL infusion concentrate in PG, 25° C./60% RH, 2 months
[13] = 0.6 mg/mL infusion concentrate in PG, 25° C./60% RH, 3 months
[14] = 0.6 mg/mL infusion concentrate in PG, 45° C./60% RH, 0.5 month
[15] = 0.6 mg/mL infusion concentrate in PG, 45° C./60% RH, 1 month
[16] = 2.0 mg/mL infusion concentrate in PG, 0-time
[17] = 2.0 mg/mL infusion concentrate in PG, 5° C., 0.5 month
[18] = 2.0 mg/mL infusion concentrate in PG, 5° C., 1 month
[19] = 2.0 mg/mL infusion concentrate in PG, 5° C., 2 months
[20] = 2.0 mg/mL infusion concentrate in PG, 5° C., 3 months
[21] = 2.0 mg/mL infusion concentrate in PG, 25° C./60% RH, 0.5 month
[22] = 2.0 mg/mL infusion concentrate in PG, 25° C./60% RH, 1 month
[23] = 2.0 mg/mL infusion concentrate in PG, 25° C./60% RH, 2 months
[24] = 2.0 mg/mL infusion concentrate in PG, 25° C./60% RH, 3 months
[25] = 2.0 mg/mL infusion concentrate in PG, 45° C./60% RH, 0.5 month
[26] = 2.0 mg/mL infusion concentrate in PG, 45° C./60% RH, 1 month
[27] = 3.0 mg/mL infusion concentrate in PG, 0-time
[28] = 3.0 mg/mL infusion concentrate in PG, 5° C., 0.5 month
[29] = 3.0 mg/mL infusion concentrate in PG, 5° C., 1 month
[30] = 3.0 mg/mL infusion concentrate in PG, 5° C., 2 months
[31] = 3.0 mg/mL infusion concentrate in PG, 5° C., 3 months
[32] = 3.0 mg/mL infusion concentrate in PG, 25° C./60% RH, 0.5 month
[33] = 3.0 mg/mL infusion concentrate in PG, 25° C./60% RH, 1 month
[34] = 3.0 mg/mL infusion concentrate in PG, 25° C./60% RH, 2 months
[35] = 3.0 mg/mL infusion concentrate in PG, 25° C./60% RH, 3 months
[36] = 3.0 mg/mL infusion concentrate in PG, 45° C./60% RH, 0.5 month
[37] = 3.0 mg/mL infusion concentrate in PG, 45° C./60% RH, 1 month
[38] = 0.12 mg/mL solution for infusion, 0 hours
[39] = 0.12 mg/mL solution for infusion, 2 hours
[40] = 0.12 mg/mL solution for infusion, 4 hours
[41] = 0.12 mg/mL solution for infusion, 8 hours
[42] = 0.12 mg/mL solution for infusion, 24 hours
[43] = 0.4 mg/mL solution for infusion, 0 hours
[44] = 0.4 mg/mL solution for infusion, 2 hours
[45] = 0.4 mg/mL solution for infusion, 4 hours
[46] = 0.4 mg/mL solution for infusion, 8 hours
[47] = 0.4 mg/mL solution for infusion, 24 hours
[48] = 0.6 mg/mL solution for infusion, 0 hours
[49] = 0.6 mg/mL solution for infusion, 2 hours
[50] = 0.6 mg/mL solution for infusion, 4 hours
[51] = 0.6 mg/mL solution for infusion, 8 hours
[52] = 0.6 mg/mL solution for infusion, 24 hours

Compound: C=C/C=C\C(C)[C@H](OC(N)=O)[C@@H](C)[C@H](O)[C@@H](C)C/C(C)=C\C(C)C(O)[C@@H](C)/C=C\[C@@H](O)C[C@@H]1OC(=O)[C@H](C)C(O)C1C (single isomer, unassigned; (+)) [discodermolide, (+)-Discodermolide]
- Assay [1, 5]: 100.4 % label claim
- Total Impurities [1, 5]: 0.18%
- Assay [1, 6]: 103.2 % label claim
- Total Impurities [1, 6]: 0.16%
- Assay [1, 7]: 102.6 % label claim
- Total Impurities [1, 7]: 0.19%
- Assay [1, 8]: 103.3 % label claim
- Total Impurities [1, 8]: 0.27%
- Assay [1, 9]: 103.8 % label claim
- Total Impurities [1, 9]: 0.29%
- Assay [1, 10]: 102.8 % label claim
- Total Impurities [1, 10]: 0.65%
- Assay [1, 11]: 101.9 % label claim
- Total Impurities [1, 11]: 1.08%
- Assay [1, 12]: 102.5 % label claim
- Total Impurities [1, 12]: 1.18%
- Assay [1, 13]: 102.4 % label claim
- Total Impurities [1, 13]: 1.43%
- Assay [1, 14]: 102.0 % label claim
- Total Impurities [1, 14]: 1.49%
- Assay [1, 15]: 101.6 % label claim
- Total Impurities [1, 15]: 1.91%
- Assay [1, 16]: 99.9 % label claim
- Total Impurities [1, 16]: 0.19%
- Assay [1, 17]: 103.2 % label claim
- Total Impurities [1, 17]: 0.16%
- Assay [1, 18]: 100.5 % label claim
- Total Impurities [1, 18]: 0.18%
- Assay [1, 19]: 102.5 % label claim
- Total Impurities [1, 19]: 0.18%
- Assay [1, 20]: 101.0 % label claim
- Total Impurities [1, 20]: 0.54%
- Assay [1, 21]: 101.1 % label claim
- Total Impurities [1, 21]: 0.55%
- Assay [1, 22]: 99.6 % label claim
- Total Impurities [1, 22]: 0.78%
- Assay [1, 23]: 101.4 % label claim
- Total Impurities [1, 23]: 1.18%
- Assay [1, 24]: 100.9 % label claim
- Total Impurities [1, 24]: 1.48%
- Assay [1, 25]: 100.3 % label claim
- Total Impurities [1, 25]: 1.17%
- Assay [1, 26]: 100.0 % label claim
- Total Impurities [1, 26]: 1.69%
- Assay [1, 27]: 102.7 % label claim
- Total Impurities [1, 27]: 0.19%
- Assay [1, 28]: 101.5 % label claim
- Total Impurities [1, 28]: 0.16%
- Assay [1, 29]: 102.0 % label claim
- Total Impurities [1, 29]: 0.19%
- Assay [1, 30]: 104.1 % label claim
- Total Impurities [1, 30]: 0.17%
- Assay [1, 31]: 104.4 % label claim
- Total Impurities [1, 31]: 0.29%
- Assay [1, 32]: 102.4 % label claim
- Total Impurities [1, 32]: 0.35%
- Assay [1, 33]: 101.3 % label claim
- Total Impurities [1, 33]: 0.52%
- Assay [1, 34]: 103.1 % label claim
- Total Impurities [1, 34]: 0.69%
- Assay [1, 35]: 102.1 % label claim
- Total Impurities [1, 35]: 0.69%
- Assay [1, 36]: 100.9 % label claim
- Total Impurities [1, 36]: 0.58%
- Assay [1, 37]: 101.5 % label claim
- Total Impurities [1, 37]: 0.70%
- Levels of impurities under accelerated conditions ([1]; 25° C./60% RH and 45° C./60% RH): increased
- Change in discodermolide content ([1]; PG infusion concentrates, after 3 months at 5° C.): No significant changes
- Total impurity amounts ([1]; PG infusion concentrates, after 3 months at 5° C., versus proposed specification limit): < 2.0%
- Total Impurities ([2]; 0 hours): 0.20 % area
- Total Impurities ([2]; 2 hours): 0.23 % area
- Total Impurities ([2]; 4 hours): 0.34 % area
- Total Impurities ([2]; 8 hours): 0.47 % area
- Total Impurities ([2]; 24 hours): 0.80 % area
- solubility ([3]; PG 38 / EtOH 9 / normal saline 53 (%, w/v)): 640 µg/mL
- solubility ([3]; PG 38 / EtOH 9.5 / normal saline 52.5 (%, w/v)): 700 µg/mL
- solubility ([3]; PG 40 / EtOH 8 / normal saline 52 (%, w/v)): 620 µg/mL
- solubility ([3]; PG 40 / EtOH 9 / normal saline 51 (%, w/v)): 770 µg/mL
- solubility ([3]; PG 40 / EtOH 9.6 / normal saline 50.4 (%, w/v)): 870 µg/mL
- solubility ([3]; PG 40 / EtOH 10 / normal saline 50 (%, w/v)): 960 µg/mL
- Assay [4, 38]: 105.6 % label claim
- Total Impurities [4, 38]: 0.17 % area
- Assay [4, 39]: 105.6 % label claim
- Total Impurities [4, 39]: 0.17 % area
- Assay [4, 40]: 106.4 % label claim
- Total Impurities [4, 40]: 0.21 % area
- Assay [4, 41]: 107.0 % label claim
- Total Impurities [4, 41]: 0.25 % area
- Assay [4, 42]: 104.6 % label claim
- Total Impurities [4, 42]: 0.33 % area
- Assay [4, 43]: 102.3 % label claim
- Total Impurities [4, 43]: 0.23 % area
- Assay [4, 44]: 101.8 % label claim
- Total Impurities [4, 44]: 0.97 % area
- Assay [4, 45]: 102.2 % label claim
- Total Impurities [4, 45]: 1.84 % area
- Assay [4, 46]: 102.0 % label claim
- Total Impurities [4, 46]: 3.35 % area
- Assay [4, 47]: 94.8 % label claim
- Total Impurities [4, 47]: 6.21 % area
- Assay [4, 48]: 103.0 % label claim
- Total Impurities [4, 48]: 0.28 % area
- Assay [4, 49]: 100.0 % label claim
- Total Impurities [4, 49]: 1.49 % area
- Assay [4, 50]: 99.4 % label claim
- Total Impurities [4, 50]: 2.19 % area
- Assay [4, 51]: 98.8 % label claim
- Total Impurities [4, 51]: 3.68 % area
- Assay [4, 52]: 89.9 % label claim
- Total Impurities [4, 52]: 8.90 % area
- Binding to tubulin (tubulin): binds to tubulin competitively with paclitaxel
